According to PMC5908784, “Extracellular loops 2 and 3 of the calcitonin receptor selectively modify agonist binding and efficacy” (Biochemical Pharmacology, 2018):
Changes are numbered by the printed parent chain. Like-named read-outs stand apart in the source and are kept apart here.

Tests used:
Type in all cases: cell-based
hCTR C289A = molecular target: T1, hCTR C289A (Homo sapiens, UniProt P30988, C289A); assay: cAMP accumulation; settings: cAMP maximal response, mean ± S.E.M., SEM
T1 construct: c-Myc (N); expressed in transfected cells
T1 sequence (P30988 25-474 C289A): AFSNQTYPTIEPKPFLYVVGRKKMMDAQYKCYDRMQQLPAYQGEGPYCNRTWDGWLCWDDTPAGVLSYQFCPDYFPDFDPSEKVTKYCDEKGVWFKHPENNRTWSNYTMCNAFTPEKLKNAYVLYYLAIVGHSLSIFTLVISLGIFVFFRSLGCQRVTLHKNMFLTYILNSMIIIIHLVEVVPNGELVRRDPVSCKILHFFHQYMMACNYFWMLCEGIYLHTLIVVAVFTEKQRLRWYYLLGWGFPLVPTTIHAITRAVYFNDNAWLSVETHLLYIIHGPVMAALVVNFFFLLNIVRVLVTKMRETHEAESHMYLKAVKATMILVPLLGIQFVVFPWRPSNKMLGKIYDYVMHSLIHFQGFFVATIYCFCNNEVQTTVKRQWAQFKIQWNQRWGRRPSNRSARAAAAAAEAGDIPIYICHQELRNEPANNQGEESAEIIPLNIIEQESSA
In short: (§1)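 Read-out: cAMP accumulated over 30 min of graded ligand exposure in IBMX-containing medium, expressed relative to 100 μM forskolin. Potency (EC50) and maximal effect (Emax) derive from 3-parameter logistic concentration-response curves.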

hCTR I279A = molecular target: T2, hCTR I279A (Homo sapiens, UniProt P30988, I279A); assay: cAMP accumulation; settings: mean ± S.E.M.; for Emax: cAMP maximal response, SEM
T2 construct: expressed in transfected cells
T2 sequence (P30988 25-474 I279A): T1 sequence (P30988 25-474 C289A) with I255A, A265C
In short: as §1

hCTR W361A = molecular target: T3, hCTR W361A (Homo sapiens, UniProt P30988, W361A); assay: ERK1/2 phosphorylation; settings: for Emax: read-out: Emax (% WT)
T3 construct: expressed in transfected cells
T3 sequence (P30988 25-474 W361A): T1 sequence (P30988 25-474 C289A) with A265C, W337A
Description: (§2) Cells (2.5 × 10^4 cells/well) were seeded into 96-well culture plates and incubated overnight. […] Data were normalized to the maximal response elicited by 10% FBS determined at 6 min.
(§3) Data were corrected for radioligand occupancy using the Cheng-Prusoff equation in Prism; as such data are reported as pKi. Emax and EC50 were estimated from concentration-response curves using with a 3-parameter logistic equation in Prism (v7). These values are a composite of functional affinity, efficacy and stimulus response coupling. […] Significance was accepted at P < 0.05.

hCTR V358A = molecular target: T4, hCTR V358A (Homo sapiens, UniProt P30988, V358A); assay: ERK1/2 phosphorylation; settings: CV1-FlpIn cells, mean ± S.E.M.; for Emax: pERK maximal response
T4 construct: c-Myc (N); expressed in transfected cells
T4 sequence (P30988 25-474 V358A): T1 sequence (P30988 25-474 C289A) with A265C, V334A
Description: as §2, §3

hCTR N365A = molecular target: T5, hCTR N365A (Homo sapiens, UniProt P30988, N365A); assay: ERK1/2 phosphorylation; settings: CV1-FlpIn cells, mean ± S.E.M.; for Emax: pERK maximal response
T5 construct: c-Myc (N); expressed in transfected cells
T5 sequence (P30988 25-474 N365A): T1 sequence (P30988 25-474 C289A) with A265C, N341A
Description: as §2, §3

[1] = pERK, three-parameter logistic fit

| SMILES | Emax (hCTR C289A) [%] | Emax (hCTR I279A) [%] | Emax (hCTR W361A) [%] | Emax (hCTR V358A) [%] | Emax (hCTR N365A) [%] | EC50 (hCTR I279A; cAMP, CV1-FlpIn cells, 30 min, IBMX) [nM] | Emax (hCTR W361A; pERK maximal response, hCTR W361A, CV1-FlpIn cells, mean ± S.E.M.) [%] | EC50 (hCTR W361A; pERK, hCTR W361A, CV1-FlpIn cells, three-parameter logistic fit, mean ± S.E.M.) [nM] | EC50 (hCTR V358A; [1]) [nM] | EC50 (hCTR N365A; [1]) [nM] |
| --- | --- | --- | --- | --- | --- | --- | --- | --- | --- | --- |
| CC(C)C[C@H](NC(=O)[C@H](CCCCN)NC(=O)CNC(=O)[C@H](CC(C)C)NC(=O)[C@@H](NC(=O)[C@@H]1CSSC[C@H](N)C(=O)N[C@@H](CO)C(=O)N[C@@H](CC(N)=O)C(=O)N[C@@H](CC(C)C)C(=O)N[C@@H](CO)C(=O)N[C@@H]([C@@H](C)O)C(=O)N1)C(C)C)C(=O)N[C@@H](CO)C(=O)N[C@@H](CCC(N)=O)C(=O)N[C@@H](CCC(=O)O)C(=O)N[C@@H](CC(C)C)C(=O)N[C@@H](Cc1c[nH]cn1)C(=O)N[C@@H](CCCCN)C(=O)N[C@@H](CC(C)C)C(=O)N[C@@H](CCC(N)=O)C(=O)N[C@H](C(=O)N[C@@H](Cc1ccc(O)cc1)C(=O)N1CCC[C@H]1C(=O)N[C@@H](CCCNC(=N)N)C(=O)N[C@H](C(=O)N[C@@H](CC(N)=O)C(=O)N[C@H](C(=O)NCC(=O)N[C@@H](CO)C(=O)NCC(=O)N[C@H](C(=O)N1CCC[C@H]1C(N)=O)[C@@H](C)O)[C@@H](C)O)[C@@H](C)O)[C@@H](C)O [sCT] | 140 ± 7 | 90 ± 6 | 125 ± 5 | 150 ± 8 | 84 ± 3 |  |  |  |  |  |
| CC(C)C[C@H](NC(=O)[C@H](CC(N)=O)NC(=O)[C@H](CC(N)=O)NC(=O)[C@H](CO)NC(=O)[C@H](CO)NC(=O)[C@H](CCCNC(=N)N)NC(=O)[C@@H](NC(=O)[C@H](CC(C)C)NC(=O)[C@H](Cc1ccccc1)NC(=O)[C@H](CC(N)=O)NC(=O)[C@H](C)NC(=O)[C@H](CC(C)C)NC(=O)[C@H](CCCNC(=N)N)NC(=O)[C@H](CCC(N)=O)NC(=O)[C@@H](NC(=O)[C@H](C)NC(=O)[C@@H]1CSSC[C@H](NC(=O)[C@@H](N)CCCCN)C(=O)N[C@@H](CC(N)=O)C(=O)N[C@@H]([C@@H](C)O)C(=O)N[C@@H](C)C(=O)N[C@@H]([C@@H](C)O)C(=O)N1)[C@@H](C)O)C(C)C)C(=O)NCC(=O)N1CCC[C@H]1C(=O)N[C@H](C(=O)N[C@@H](CC(C)C)C(=O)N1CCC[C@H]1C(=O)N1CCC[C@H]1C(=O)N[C@H](C(=O)N[C@@H](CC(N)=O)C(=O)N[C@H](C(=O)NCC(=O)N[C@@H](CO)C(=O)N[C@@H](CC(N)=O)C(=O)N[C@H](C(=O)N[C@@H](Cc1ccc(O)cc1)C(N)=O)[C@@H](C)O)C(C)C)[C@@H](C)O)C(C)C [rAmy] | 89 ± 23 | 81 ± 9 | 42 ± 9 | 59 ± 10 | 63 ± 10 |  |  |  |  |  |
| CC[C@H](C)[C@H](NC(=O)[C@H](C)NC(=O)[C@@H](NC(=O)[C@H](CCC(N)=O)NC(=O)[C@@H]1CCCN1C(=O)[C@H](Cc1ccccc1)NC(=O)[C@@H](NC(=O)[C@H](Cc1c[nH]cn1)NC(=O)[C@H](Cc1ccccc1)NC(=O)[C@H](CCCCN)NC(=O)[C@H](CC(N)=O)NC(=O)[C@H](Cc1ccccc1)NC(=O)[C@H](CC(=O)O)NC(=O)[C@H](CCC(N)=O)NC(=O)[C@@H](NC(=O)[C@H](Cc1ccc(O)cc1)NC(=O)[C@@H](NC(=O)CNC(=O)[C@H](CC(C)C)NC(=O)[C@H](CCSC)NC(=O)[C@@H]1CSSC[C@H](N)C(=O)NCC(=O)N[C@@H](CC(N)=O)C(=O)N[C@@H](CC(C)C)C(=O)N[C@@H](CO)C(=O)N[C@@H]([C@@H](C)O)C(=O)N1)[C@@H](C)O)[C@@H](C)O)[C@@H](C)O)[C@@H](C)O)C(=O)NCC(=O)N[C@H](C(=O)NCC(=O)N[C@@H](C)C(=O)N1CCC[C@H]1C(N)=O)C(C)C [hCT] | 148 ± 7 | 91 ± 4 | 112 ± 6 | 160 ± 10 | 93 ± 6 |  |  |  |  |  |
| CC(C)C[C@H](NC(=O)CNC(=O)[C@H](C)NC(=O)[C@H](CC(C)C)NC(=O)[C@H](CCCNC(=N)N)NC(=O)[C@H](Cc1cnc[nH]1)NC(=O)[C@@H](NC(=O)[C@@H](NC(=O)[C@@H]1CSSC[C@H](NC(=O)[C@H](C)N)C(=O)N[C@@H](CC(=O)O)C(=O)N[C@@H]([C@@H](C)O)C(=O)N[C@@H](C)C(=O)N[C@@H]([C@@H](C)O)C(=O)N1)C(C)C)[C@@H](C)O)C(=O)N[C@@H](CC(C)C)C(=O)N[C@@H](CO)C(=O)N[C@@H](CCCNC(=N)N)C(=O)N[C@@H](CO)C(=O)NCC(=O)NCC(=O)N[C@H](C(=O)N[C@H](C(=O)N[C@@H](CCCCN)C(=O)N[C@@H](CC(N)=O)C(=O)N[C@@H](CC(N)=O)C(=O)N[C@@H](Cc1ccccc1)C(=O)N[C@H](C(=O)N1CCC[C@H]1C(=O)N[C@H](C(=O)N[C@@H](CC(N)=O)C(=O)N[C@H](C(=O)NCC(=O)N[C@@H](CO)C(=O)N[C@@H](CCCCN)C(=O)N[C@@H](C)C(=O)N[C@@H](Cc1ccccc1)C(N)=O)C(C)C)[C@@H](C)O)C(C)C)C(C)C)C(C)C [hαCGRP] |  | 139 ± 18 |  | 39 ± 8 | 52 ± 8 | 3.39 | 49 ± 8 | 117 | 32.4 | 30.2 |
